Assay results reported in the NIST ThermoML archive (doi:10.1021/je2005209).
Numbers after ± are expanded uncertainties.

Details: 351.55 K; Liquid; Ebulliometric method (Recirculating still)

SMILES: CCO [ethanol]
- vapor or sublimation pressure: 101.32 ± 1.1 kPa
